Test results published in patent publication US20020137929A1, “1 - (3-heterocyclylphenyl) isothiourea, -isourea, -guanidine and -amidine herbicidal agents” (Intellectual Property Department, BASF Aktiengesellschaft, priority 1998, published 2002).

Key:
[1] = test system: TRZAWR (Wheat, Winter, cv Riband); assay: Postemergence herbicidal evaluation; assay type: in vivo, Triticum aestivum; details: postemergence
Summary of the method: (§1)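 Compound is applied as a foliar spray to seedlings about two weeks old, formulated in equal parts acetone and water with 0.5% TWEEN 20 and delivered at 40 psi to give about 0.0156–0.500 kg per hectare. Injury is rated visually 0–9 after four to five weeks.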

[2] = test system: GALAP (Galium); assay: Preemergence herbicidal evaluation; assay type: in vivo, Galium aparine; details: rated 4-5 weeks after treatment
Summary of the method: (§2)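 Steps: mix seeds into potting soil; plant atop ~1 inch soil; spray compound in aqueous acetone (~0.0156-0.500 kg/ha equivalent); maintain in greenhouse with watering; rate visually 0-9 versus control at 4-5 weeks.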

[3] = test system: IPOHE (Morningglory, Ivyleaf); assay: Postemergence herbicidal evaluation; assay type: in vivo, Ipomoea hederacea; details: postemergence
Summary of the method: as §1

[4] = test system: SETVI (Foxtail, Green); assay: Postemergence herbicidal evaluation; assay type: in vivo, Setaria viridis; details: postemergence
Summary of the method: as §1

[5] = test system: CASOB (Sicklepod); assay: Postemergence herbicidal evaluation; assay type: in vivo, Cassia obtusifolia; details: postemergence
Summary of the method: as §1

[6] = test system: TRZAWR (Wheat, Winter, cv Riband); assay: Preemergence herbicidal evaluation; assay type: in vivo, Triticum aestivum; details: rated 4-5 weeks after treatment
Summary of the method: as §2

[7] = test system: AMBEL (Ragweed, Common); assay: Postemergence herbicidal evaluation; assay type: in vivo, Ambrosia artemisifolia; details: postemergence
Summary of the method: as §1

[8] = test system: ORYSAT (Rice, Tebonnet); assay: Postemergence herbicidal evaluation; assay type: in vivo, Oryza sativa, (L.) Tebonnet; details: postemergence
Summary of the method: as §1

[9] = test system: ECHCG (Barnyardgrass); assay: Preemergence herbicidal evaluation; assay type: in vivo, Echinochloa crus-galli; details: rated 4-5 weeks after treatment
Summary of the method: as §2

[10] = test system: ZEAMX (Corn, Field); assay: Postemergence herbicidal evaluation; assay type: in vivo, Zea mays; details: postemergence
Summary of the method: as §1

[11] = test system: GALAP (Galium); assay: Postemergence herbicidal evaluation; assay type: in vivo, Galium aparine; details: postemergence
Summary of the method: as §1

[12] = test system: CASOB (Sicklepod); assay: Preemergence herbicidal evaluation; assay type: in vivo, Cassia obtusifolia; details: rated 4-5 weeks after treatment
Summary of the method: as §2

[13] = test system: AMBEL (Ragweed, Common); assay: Preemergence herbicidal evaluation; assay type: in vivo, Ambrosia artemisifolia; details: rated 4-5 weeks after treatment
Summary of the method: as §2

[14] = test system: SETVI (Foxtail, Green); assay: Preemergence herbicidal evaluation; assay type: in vivo, Setaria viridis; details: rated 4-5 weeks after treatment
Summary of the method: as §2

[15] = test system: CHEAL (Lambsquarters, Common); assay: Preemergence herbicidal evaluation; assay type: in vivo, Chenopodium album; details: rated 4-5 weeks after treatment
Summary of the method: as §2

[16] = test system: ECHORC (Watergrass (Calif.)); assay: Preemergence weed control under flooded paddy conditions; assay type: in vivo, Echinochloa oryzoides; details: rated 3-4 weeks after treatment
Summary of the method: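 Visual injury scored 0-9 against control three to four weeks post-treatment, greenhouse-grown. Application: acetone/water (50/50) solutions dosed directly into flood water (1.5-3 cm over silt loam, planted top 0.5 cm), roughly 0.0313 to 0.500 kg/ha active ingredient.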

[17] = test system: SAGPY (Arrowhead (Pygmaea)); assay: as above; assay type: in vivo, Sagittaria pygmaea; details: rated 3-4 weeks after treatment
Summary of the method: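 Ratings on a 0-9 visual scale cover stand, vigor, malformation, size, chlorosis and overall appearance relative to a control, taken three to four weeks post-treatment. Application was into flood water over freshly sown silt loam at roughly 0.0313 to 0.500 kg/ha.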

CCOC(=O)CN1C(=O)C(Cc2ccccc2OCC(=O)O)S/C1=N/c1cc(-n2c(=O)cc(C(F)(F)F)n(C)c2=O)c(F)cc1Cl (stereo not drawn) [Compound 113, 5-[o-(Carboxymethoxy)benzyl]-2-{{2-chloro-5-[3,6-dihydro-3-methyl-2,6-dioxo-4-(trifluoromethyl)-1(2H)-pyrimidinyl]-4-fluorophenyl}imino}-4-oxo-3-thiazolidineacetic acid, 3-ethyl ester]
Herbicidal rating TRZAWR ([1]; rate 0.0158 kg/ha): 2.0
Herbicidal rating TRZAWR ([1]; rate 0.0315 kg/ha): 2.0
Herbicidal rating TRZAWR ([1]; rate 0.0630 kg/ha): 3.0
Preemergence herbicidal rating GALAP ([2]; rate 0.0156 kg/ha): 0.0
Preemergence herbicidal rating GALAP ([2]; rate 0.0313 kg/ha): 0.0
Preemergence herbicidal rating GALAP ([2]; rate 0.0625 kg/ha): 0.0
Preemergence herbicidal rating GALAP ([2]; rate 0.1250 kg/ha): 1.0
Preemergence herbicidal rating GALAP ([2]; rate 0.2500 kg/ha): 3.0
Herbicidal rating IPOHE ([3]; rate 0.0158 kg/ha): 7.0
Herbicidal rating IPOHE ([3]; rate 0.0315 kg/ha): 9.0
Herbicidal rating IPOHE ([3]; rate 0.0630 kg/ha): 9.0
Herbicidal rating SETVI ([4]; rate 0.0158 kg/ha): 3.0
Herbicidal rating SETVI ([4]; rate 0.0630 kg/ha): 3.0
Herbicidal rating CASOB ([5]; rate 0.0158 kg/ha): 0.0
Herbicidal rating CASOB ([5]; rate 0.0315 kg/ha): 0.0
Herbicidal rating CASOB ([5]; rate 0.0630 kg/ha): 4.0
Preemergence herbicidal rating TRZAWR ([6]; rate 0.0156 kg/ha): 0.0
Preemergence herbicidal rating TRZAWR ([6]; rate 0.0313 kg/ha): 0.0
Preemergence herbicidal rating TRZAWR ([6]; rate 0.0625 kg/ha): 0.0
Preemergence herbicidal rating TRZAWR ([6]; rate 0.1250 kg/ha): 0.0
Preemergence herbicidal rating TRZAWR ([6]; rate 0.2500 kg/ha): 0.0
Herbicidal rating AMBEL ([7]; rate 0.0158 kg/ha): 5.0
Herbicidal rating AMBEL ([7]; rate 0.0315 kg/ha): 9.0
Herbicidal rating AMBEL ([7]; rate 0.0630 kg/ha): 9.0
Herbicidal rating ORYSAT ([8]; rate 0.0158 kg/ha): 2.0
Herbicidal rating ORYSAT ([8]; rate 0.0315 kg/ha): 2.0
Herbicidal rating ORYSAT ([8]; rate 0.0630 kg/ha): 2.5
Preemergence herbicidal rating ECHCG ([9]; rate 0.0156 kg/ha): 0.0
Preemergence herbicidal rating ECHCG ([9]; rate 0.0313 kg/ha): 0.0
Preemergence herbicidal rating ECHCG ([9]; rate 0.0625 kg/ha): 0.0
Preemergence herbicidal rating ECHCG ([9]; rate 0.1250 kg/ha): 0.0
Preemergence herbicidal rating ECHCG ([9]; rate 0.2500 kg/ha): 0.0
Herbicidal rating ZEAMX ([10]; rate 0.0158 kg/ha): 4.0
Herbicidal rating ZEAMX ([10]; rate 0.0315 kg/ha): 4.5
Herbicidal rating ZEAMX ([10]; rate 0.0630 kg/ha): 4.5
Herbicidal rating GALAP ([11]; rate 0.0158 kg/ha): 1.0
Herbicidal rating GALAP ([11]; rate 0.0315 kg/ha): 0.0
Herbicidal rating GALAP ([11]; rate 0.0630 kg/ha): 2.0
Preemergence herbicidal rating CASOB ([12]; rate 0.0156 kg/ha): 0.0
Preemergence herbicidal rating CASOB ([12]; rate 0.0313 kg/ha): 0.0
Preemergence herbicidal rating CASOB ([12]; rate 0.0625 kg/ha): 0.0
Preemergence herbicidal rating CASOB ([12]; rate 0.1250 kg/ha): 0.0
Preemergence herbicidal rating CASOB ([12]; rate 0.2500 kg/ha): 0.0
Preemergence herbicidal rating AMBEL ([13]; rate 0.0156 kg/ha): 0.0
Preemergence herbicidal rating AMBEL ([13]; rate 0.0313 kg/ha): 0.0
Preemergence herbicidal rating AMBEL ([13]; rate 0.0625 kg/ha): 0.0
Preemergence herbicidal rating AMBEL ([13]; rate 0.1250 kg/ha): 0.0
Preemergence herbicidal rating AMBEL ([13]; rate 0.2500 kg/ha): 2.0
Preemergence herbicidal rating SETVI ([14]; rate 0.0156 kg/ha): 0.0
Preemergence herbicidal rating SETVI ([14]; rate 0.0313 kg/ha): 0.0
Preemergence herbicidal rating SETVI ([14]; rate 0.0625 kg/ha): 0.0
Preemergence herbicidal rating SETVI ([14]; rate 0.1250 kg/ha): 0.0
Preemergence herbicidal rating SETVI ([14]; rate 0.2500 kg/ha): 1.0
Preemergence herbicidal rating CHEAL ([15]; rate 0.0156 kg/ha): 6.0
Preemergence herbicidal rating CHEAL ([15]; rate 0.0313 kg/ha): 7.0
Preemergence herbicidal rating CHEAL ([15]; rate 0.0625 kg/ha): 0.0
Preemergence herbicidal rating CHEAL ([15]; rate 0.1250 kg/ha): 9.0
Preemergence herbicidal rating CHEAL ([15]; rate 0.2500 kg/ha): 9.0
ECHORC herbicidal effect rating ([16]; 0.0313 kg/ha): 4.0
ECHORC herbicidal effect rating ([16]; 0.0625 kg/ha): 4.0
ECHORC herbicidal effect rating ([16]; 0.1250 kg/ha): 5.0
ECHORC herbicidal effect rating ([16]; 0.2500 kg/ha): 7.0
SAGPY herbicidal effect rating ([17]; 0.0313 kg/ha): 4.0
SAGPY herbicidal effect rating ([17]; 0.0625 kg/ha): 6.0
SAGPY herbicidal effect rating ([17]; 0.1250 kg/ha): 9.0
SAGPY herbicidal effect rating ([17]; 0.2500 kg/ha): 9.0
